Earlier results as cited in US8680301B2, “Lipase activity inhibitors containing high-molecular weight polyphenol fractions, tea extracts, and processes for producing the same” (Suntory Holdings Limited, priority 2004, dated 2014).

Details: clinical reports

SMILES	Reported side effects
OC1(c2ccc(Cl)cc2)c2ccccc2C2=NCCN21 (centres unmarked) [Mazindole®]	side effects such as excessive thirst (mouth dryness), constipation, epigastric distress, nausea and vomiting
CCCCCCCCCCC[C@@H](C[C@@H]1OC(=O)[C@H]1CCCCCC)OC(=O)[C@H](CC(C)C)NC=O [Xenical®]	side effects such as fatty stool, increased stool frequency, soft stool, diarrhea and stomachache
